Test results published in US8138334B2, “Substituted oxa-diaza-spiro-[5.5]-undecanone derivatives and their use as neurokinin antagonists” (Janssen Pharmaceutica N.V., priority 2005, dated 2012).

Experiments:
NK3 = biological target: T1, NK3 (Homo sapiens, UniProt P29371); test: Signal transduction (ST), intracellular Ca++ FLIPR, NK3; assay type: cell-based; details: antagonist, read-out: NK3 pIC50 (converted)
T1 sequence (P29371 1-465): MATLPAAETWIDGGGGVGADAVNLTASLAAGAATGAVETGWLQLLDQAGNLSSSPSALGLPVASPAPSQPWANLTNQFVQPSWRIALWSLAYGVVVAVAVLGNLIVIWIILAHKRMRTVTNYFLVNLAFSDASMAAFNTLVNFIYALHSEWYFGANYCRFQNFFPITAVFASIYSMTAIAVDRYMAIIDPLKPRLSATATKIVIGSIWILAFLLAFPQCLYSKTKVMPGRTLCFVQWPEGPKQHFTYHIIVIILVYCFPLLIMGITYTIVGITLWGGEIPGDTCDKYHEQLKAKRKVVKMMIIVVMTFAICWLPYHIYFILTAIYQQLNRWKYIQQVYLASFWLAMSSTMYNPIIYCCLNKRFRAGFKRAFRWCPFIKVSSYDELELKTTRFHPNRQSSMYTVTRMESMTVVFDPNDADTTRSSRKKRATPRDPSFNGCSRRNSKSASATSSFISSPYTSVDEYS

NK1 = NK1 (Homo sapiens, UniProt P25103); test: Signal transduction (ST), intracellular Ca++ FLIPR, NK1; assay type: cell-based; details: antagonist, read-out: NK1 pIC50 (converted)
Sequence of NK1 (P25103 whole entry): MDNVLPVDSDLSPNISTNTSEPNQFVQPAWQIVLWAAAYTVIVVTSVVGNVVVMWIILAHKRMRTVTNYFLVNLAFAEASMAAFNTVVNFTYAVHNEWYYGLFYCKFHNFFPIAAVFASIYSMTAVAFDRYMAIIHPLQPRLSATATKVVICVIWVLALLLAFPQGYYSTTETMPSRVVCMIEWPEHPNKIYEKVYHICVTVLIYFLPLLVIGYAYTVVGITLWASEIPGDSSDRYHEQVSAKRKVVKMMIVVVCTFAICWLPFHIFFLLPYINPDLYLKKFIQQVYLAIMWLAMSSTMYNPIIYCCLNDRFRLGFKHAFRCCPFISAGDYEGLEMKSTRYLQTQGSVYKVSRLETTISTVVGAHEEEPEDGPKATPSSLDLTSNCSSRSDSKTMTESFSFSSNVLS
Method: This test evaluates in vitro functional NK1 antagonistic activity. For the measurements of intracellular Ca^++ concentrations the cells were grown on 96-well (black wall/transparent bottom) plates from Costar for 2 days until they reached confluence. The cells were loaded with 2 μM Fluo3 in DMEM containing 0.1% BSA and 2.5 mM probenecid for 1 h at 37° C. They were washed 3× with a Krebs buffer (140 mM NaCl, 1 mM MgCl2×6H2O, 5 mM KCl, 10 mM glucose, 5 mM HEPES; 1.25 mM CaCl2; pH 7.4) containing 2.5 mM probenecid and 0.1% BSA (Ca^++-buffer). The cells were preincubated with a concentration range of antagonists for 20 min at RT and Ca^++-signals after addition of the agonists were measured in a Fluorescence Image Plate Reader (FLIPR from Molecular Devices, Crawley, England). The peak of the Ca^++-transient was considered as the relevant signal and the mean values of corresponding wells were analysed as described below.
The sigmoidal dose response curves were analysed by computerised curve-fitting, using the GraphPad Program. The EC50-value of a compound is the effective dose showing 50% of maximal effect. For mean curves the response to the agonist with the highest potency was normalised to 100%. For antagonist responses the IC50-value was calculated using non-linear regression. […]

NK2 = biological target: T2, NK2 (Homo sapiens, UniProt P21452); test: Signal transduction (ST), intracellular Ca++ FLIPR, NK2; assay type: cell-based; details: antagonist, read-out: NK2 pIC50 (converted)
T2 sequence (P21452 1-398): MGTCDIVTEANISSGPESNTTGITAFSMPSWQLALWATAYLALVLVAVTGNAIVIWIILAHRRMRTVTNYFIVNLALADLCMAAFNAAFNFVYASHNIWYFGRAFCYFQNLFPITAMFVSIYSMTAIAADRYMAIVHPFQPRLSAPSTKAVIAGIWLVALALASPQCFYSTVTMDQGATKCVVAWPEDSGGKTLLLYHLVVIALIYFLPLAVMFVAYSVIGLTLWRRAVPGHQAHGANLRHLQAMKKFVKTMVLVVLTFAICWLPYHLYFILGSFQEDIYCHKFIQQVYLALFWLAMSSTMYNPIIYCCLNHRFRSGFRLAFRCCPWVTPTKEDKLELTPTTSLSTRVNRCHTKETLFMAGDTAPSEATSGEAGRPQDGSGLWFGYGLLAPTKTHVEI

Row | Structure (SMILES) | IC50 (NK3) | IC50 (NK1) | IC50 (NK2) | melting point
1 | O=C(c1ccccc1)N1CCC2(CC1)CCN(C1CCN(C(=O)c3cc(C(F)(F)F)cc(C(F)(F)F)c3)C(Cc3ccccc3)C1)C(=O)O2 (stereo not drawn) [Compound 1.11] | 794 nM | 31.6 nM | > 10000 nM | –
2 | CC(C)(C)CN1CCC2(CCN(C3CCN(C(=O)c4cc(C(F)(F)F)cc(C(F)(F)F)c4)C(Cc4ccccc4)C3)CC2)OC1=O (single isomer, unassigned) [Compound 2.2] | 3980 nM | 63.1 nM | 2000 nM | –
3 | O=C(c1ccoc1)N1CCC2(CC1)CCN(C1CCN(C(=O)c3cc(C(F)(F)F)cc(C(F)(F)F)c3)C(Cc3ccccc3)C1)C(=O)O2 (stereo not drawn) [Compound 1.7] | 126 nM | 15.8 nM | 7940 nM | –
4 | CCC(CC)CN1CCC2(CCN(C3CCN(C(=O)c4cc(C(F)(F)F)cc(C(F)(F)F)c4)C(Cc4ccccc4)C3)CC2)OC1=O (single isomer, unassigned) [Compound 2.4] | 7940 nM | 79.4 nM | 5010 nM | –
5 | O=C(c1ccccc1)N1CCC2(CC1)CCN(C1CCN(C(=O)c3cc(C(F)(F)F)cc(C(F)(F)F)c3)C(Cc3ccccc3)C1)C(=O)O2 (stereo not drawn) [Compound 1.12] | – | 50.1 nM | – | 110 °C
6 | Cc1nnsc1C(=O)N1CCC2(CC1)CCN(C1CCN(C(=O)c3cc(C(F)(F)F)cc(C(F)(F)F)c3)C(Cc3ccccc3)C1)C(=O)O2 (stereo not drawn) [Compound 1.10] | 316 nM | 12.6 nM | 6310 nM | –
7 | O=C(C1CCOC1)N1CCC2(CC1)CCN([C@H]1CCN(C(=O)c3cc(C(F)(F)F)cc(C(F)(F)F)c3)[C@H](Cc3ccccc3)C1)C(=O)O2 (stereo partly drawn) [Compound 1.5] | 251 nM | 12.6 nM | 7940 nM | –
8 | O=C1OC2(CCN1CC1CCCCC1)CCN(C1CCN(C(=O)c3cc(C(F)(F)F)cc(C(F)(F)F)c3)C(Cc3ccccc3)C1)CC2 (stereo not drawn) [Compound 2.5] | > 10000 nM | 200 nM | 5010 nM | –
9 | O=C(C1CCOC1)N1CCC2(CC1)CCN(C1CCN(C(=O)c3cc(C(F)(F)F)cc(C(F)(F)F)c3)C(Cc3ccccc3)C1)C(=O)O2 (stereo not drawn) [Compound 1.6] | – | 25.1 nM | – | 102 °C
10 | CC(C)(C)C(=O)N1CCC2(CC1)CCN(C1CCN(C(=O)c3cc(C(F)(F)F)cc(C(F)(F)F)c3)C(Cc3ccccc3)C1)C(=O)O2 (stereo not drawn) [Compound 1.3] | 79.4 nM | 10 nM | 5010 nM | –
11 | CC(C)(C)CN1CCC2(CCN(C3CCN(C(=O)c4cc(C(F)(F)F)cc(C(F)(F)F)c4)C(Cc4ccccc4)C3)CC2)OC1=O (single isomer, unassigned) [Compound 2.1] | – | 251 nM | > 10000 nM | –
12 | CCC(CC)CN1CCC2(CCN(C3CCN(C(=O)c4cc(C(F)(F)F)cc(C(F)(F)F)c4)C(Cc4ccccc4)C3)CC2)OC1=O (single isomer, unassigned) [Compound 2.3] | 5010 nM | 398 nM | > 10000 nM | –
13 | O=C(c1ccoc1)N1CCC2(CC1)CCN(C1CCN(C(=O)c3cc(C(F)(F)F)cc(C(F)(F)F)c3)C(Cc3ccccc3)C1)C(=O)O2 (stereo not drawn) [Compound 1.8] | – | 25.1 nM | – | 192 °C
14 | O=C(C1CC1)N1CCC2(CC1)CCN([C@H]1CCN(C(=O)c3cc(C(F)(F)F)cc(C(F)(F)F)c3)[C@H](Cc3ccccc3)C1)C(=O)O2 [Compound 1.4] | 126 nM | 12.6 nM | 1000 nM | –
15 | O=C(c1cnccn1)N1CCC2(CC1)CCN(C1CCN(C(=O)c3cc(C(F)(F)F)cc(C(F)(F)F)c3)C(Cc3ccccc3)C1)C(=O)O2 (stereo not drawn) [Compound 1.13] | 1580 nM | 50.1 nM | 7940 nM | –

More lines, now with the values ahead:

Row | IC50 (NK3) | IC50 (NK1) | IC50 (NK2) | melting point | Structure (SMILES)
16 | 3980 nM | 79.4 nM | 2000 nM | – | Cn1cccc1CN1CCC2(CCN(C3CCN(C(=O)c4cc(C(F)(F)F)cc(C(F)(F)F)c4)C(Cc4ccccc4)C3)CC2)OC1=O (single isomer, unassigned) [Compound 2.10]
17 | 5010 nM | 251 nM | 3980 nM | – | Cc1ccccc1CN1CCC2(CCN(C3CCN(C(=O)c4cc(C(F)(F)F)cc(C(F)(F)F)c4)C(Cc4ccccc4)C3)CC2)OC1=O (stereo not drawn) [Compound 2.12]
18 | 2000 nM | 316 nM | > 10000 nM | – | O=C1OC2(CCN1Cc1ccc(O)cc1)CCN(C1CCN(C(=O)c3cc(C(F)(F)F)cc(C(F)(F)F)c3)C(Cc3ccccc3)C1)CC2 (stereo not drawn) [Compound 2.15]
19 | 6310 nM | 251 nM | > 10000 nM | – | O=C1OC2(CCN1Cc1ccoc1)CCN(C1CCN(C(=O)c3cc(C(F)(F)F)cc(C(F)(F)F)c3)C(Cc3ccccc3)C1)CC2 (stereo not drawn) [Compound 2.8]
20 | 7940 nM | 398 nM | > 10000 nM | – | Cc1ccccc1CN1CCC2(CCN(C3CCN(C(=O)c4cc(C(F)(F)F)cc(C(F)(F)F)c4)C(Cc4ccccc4)C3)CC2)OC1=O (stereo not drawn) [Compound 2.11]
21 | – | 158 nM | 3980 nM | – | O=C1OC2(CCN1Cc1ccsc1)CCN(C1CCN(C(=O)c3cc(C(F)(F)F)cc(C(F)(F)F)c3)C(Cc3ccccc3)C1)CC2 (stereo not drawn) [Compound 2.7]
22 | 3160 nM | 631 nM | – | – | Cn1cccc1CN1CCC2(CCN(C3CCN(C(=O)c4cc(C(F)(F)F)cc(C(F)(F)F)c4)C(Cc4ccccc4)C3)CC2)OC1=O (single isomer, unassigned) [Compound 2.9]
23 | 1580 nM | 398 nM | > 10000 nM | – | O=C1OC2(CCN1Cc1cccnc1)CCN(C1CCN(C(=O)c3cc(C(F)(F)F)cc(C(F)(F)F)c3)C(Cc3ccccc3)C1)CC2 (single isomer, unassigned) [Compound 2.16]
24 | 2510 nM | 200 nM | > 10000 nM | – | O=C1OC2(CCN1Cc1ccsc1)CCN(C1CCN(C(=O)c3cc(C(F)(F)F)cc(C(F)(F)F)c3)C(Cc3ccccc3)C1)CC2 (stereo not drawn) [Compound 2.6]
25 | 6310 nM | 100 nM | 2510 nM | – | O=C1OC2(CCN1Cc1cccnc1)CCN(C1CCN(C(=O)c3cc(C(F)(F)F)cc(C(F)(F)F)c3)C(Cc3ccccc3)C1)CC2 (single isomer, unassigned) [Compound 2.17]
